Measured values reported in PMC7170309, “Imidazopyridine-fused [1,3]diazepinones: modulations of positions 2 to 4 and their impacts on the anti-melanoma activity” (Journal of Enzyme Inhibition and Medicinal Chemistry, 2020).

Assays:
Format in all cases: cell-based, human
[1] = system: MDA-MB-435 cells; assay: DNA cell cycle analysis (flow cytometry); details: 5 µM; for proportion of cells in G2/M phase: control 14.3%; for proportion of cells in G1 phase: control 47.1%
Method: The cell cycle analysis was performed as previously described to compare data with our previous results. Flow cytometric analysis was performed on 350,000 MDA-MB-435 cells seeded in culture dishes (60 mm diameter) and allowed to grow for 48 h. Cells were then treated with compound 5 or 8 at 5 µM concentration for 16 h and 48 h. After treatment cells were harvested and fixed with 70% ethanol. The fixed cells were then incubated with 10 mg/mL RNase A (Sigma Aldrich) and 1 mg/mL propidium iodide (Sigma Aldrich), in the dark, for 24 h at 4 °C. Finally, DNA content of the cells was analysed using Gallios Beckman Coulter flow cytometer with FlowJo software v1.0.
Thus, compound 5 could probably shared a common mechanism of action with JMV5038, contrary to compound 8. DNA cell cycle analysis was performed using MDA-MB-435 cells treated with either compound 5 or compound 8, and compared to that obtained with cells treated with vehicle (DMSO) as a negative control. Cell cycle pattern changes of MDA-MB-435 cells were investigated using fluorescence-activated cell sorting (FACS) (Figure 5 and Figure S1, SI). In this experiment MDA-MB-435 cells were treated with or without 5 µM concentration of compound 5 or 8 for 16 h and 48 h.

[2] = system: MDA-MB-435 cells; assay: Immunofluorescent staining for actin localisation (confocal microscopy); details: 5 µM, 20 h
Method: To evaluate the effect of compound treatment on cell morphology and stress actin fibres, an immunofluorescence imaging of cells was performed as previously described. MDA-MB-435 cells were seeded on cover slips in petri dishes and allowed to grow for 24 h. After cell growth, cells were treated with the vehicule (control cells) or with JMV5038, compound 5 or 8 at 5 µM for 20 h. Then cells were fixed using Antigenfix for 20 min and permeabilized using 0.2% Triton X-100 for 4 min at room temperature. Actin was stained using a primary human anti-actin antibody (made from mouse) and a secondary Alexa Fluor 568-conjugated goat anti-mouse antibody. Both of them were incubated 1 h at room temperature. Nuclei were counter-stained using Hoechst 33342. Representative images were obtained using a Zeiss LSM 780 inverted confocal microscopy. Confocal fluorescence microscopy was performed on fixed cells under a 543 nm wavelength excitation for AlexaFluor568, and 405 nm for nuclei, and visualised at 620 nm (red) and 450 nm (blue) respectively.
In our previous study, we reported that JMV5038 led to changes in the cell morphology, concomitant with a disruption of the actin network. Morphological changes in MDA-MB-435 cells induced by compounds 5 or 8 were investigated and compared to those induced by JMV5038. For this purpose, fixed and actin immunostained MDA-MB-435 cells were imaged by confocal microscopy (Figure 6). Control cells treated with DMSO (20 h, 5 µM concentration) were spread and the tensile forces of actin stress fibres stretched the cell-adhesive phenotype.

[3] = system: CCRF-CEM; assay: NCI-60 SRB assay, CCRF-CEM (Leukemia); details: 10 µM, 48 h; for G%: growth vs untreated control
Method: (§1) Primary anticancer assay was performed on a panel of 60 human cancer cell lines derived from nine neoplastic diseases, in accordance with the protocol of the Drug Evaluation Branch, National Cancer Institute, Bethesda, Maryland, USA[22]. Cells were incubated with tested compounds at 10 µM for 48 h. The growth percentage was evaluated spectrophotometrically using a protein binding dye, SRB. Results for each tested compound were reported as the percent of growth of treated cells when compared to untreated control cells.
(§2) To better compare the activity profile of these two series of compounds, compounds 5 and 8 were selected and then evaluated towards a panel of sixty cancer cell lines corresponding to nine different cancer types, i.e. leukaemia, melanoma, as well as lung, colon, central nervous system, ovarian, renal, prostate and breast cancers (NCI evaluation). Indeed, it is now well established that the growth inhibitory patterns of anticancer drugs against the NCI-60 cell line panel correlated well with their modes of action. For example, compounds that bind to tubulin have similar growth inhibition patterns regardless of which site on tubulin they bind[30]. […] Compounds were tested using the sulforhodamine B (SRB) assay that provides a direct cell density index. The amount of dye incorporated by the cells increases with the increase of the total protein biomass. Cells were incubated for 48 h with compounds at 10 µM concentration, then cell growth was evaluated spectrophotometrically and presented as the percent of untreated control cells. Values of the most sensitive cell lines were compared to those obtained with JMV5038 (Figure 4, for all data see SI).

[4] = system: A549/ATCC; assay: NCI-60 SRB assay, A549/ATCC (NSCLC); details: 10 µM, 48 h; for G%: growth vs untreated control
Method: as §1, §2

[5] = system: NCI-H460; assay: NCI-60 SRB assay, NCI-H460 (NSCLC); details: 10 µM, 48 h; for G%: growth vs untreated control
Method: as §1, §2

[6] = system: COLO 205; assay: NCI-60 SRB assay, COLO 205 (Colon Cancer); details: 10 µM, 48 h; for G%: growth vs untreated control
Method: as §1, §2

[7] = system: KM12; assay: NCI-60 SRB assay, KM12 (Colon Cancer); details: 10 µM, 48 h; for G%: growth vs untreated control
Method: as §1, §2

[8] = system: SW-620; assay: NCI-60 SRB assay, SW-620 (Colon Cancer); details: 10 µM, 48 h; for G%: growth vs untreated control
Method: as §1, §2

[9] = system: SF-539; assay: NCI-60 SRB assay, SF-539 (CNS Cancer); details: 10 µM, 48 h; for G%: growth vs untreated control
Method: as §1, §2

[10] = system: U251; assay: NCI-60 SRB assay, U251 (CNS Cancer); details: 10 µM, 48 h; for G%: growth vs untreated control
Method: as §1, §2

[11] = system: LOX IMVI; assay: NCI-60 SRB assay, LOX IMVI (Melanoma); details: 10 µM, 48 h; for G%: growth vs untreated control
Method: as §1, §2

[12] = system: SK-MEL-2; assay: NCI-60 SRB assay, SK-MEL-2 (Melanoma); details: 10 µM, 48 h; for G%: growth vs untreated control
Method: as §1, §2

[13] = system: UACC-257; assay: NCI-60 SRB assay, UACC-257 (Melanoma); details: 10 µM, 48 h; for G%: growth vs untreated control
Method: as §1, §2

[14] = system: NCI/ADR-RES; assay: NCI-60 SRB assay, NCI/ADR-RES (Ovarian Cancer); details: 10 µM, 48 h; for G%: growth vs untreated control;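 as to Mean G% - G%: mean growth across the NCI-60 panel minus this line's growth with positive meaning more sensitive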
Method: as §1, §2

[15] = system: CAKI-1; assay: NCI-60 SRB assay, CAKI-1 (Renal Cancer); details: 10 µM, 48 h; for G%: growth vs untreated control
Method: as §1, §2

[16] = system: HS 578T; assay: NCI-60 SRB assay, HS 578T (Breast Cancer); details: 10 µM, 48 h; for G%: growth vs untreated control
Method: as §1, §2

[17] = system: BT-549; assay: NCI-60 SRB assay, BT-549 (Breast Cancer); details: 10 µM, 48 h; for G%: growth vs untreated control
Method: as §1, §2

[18] = system: T-47D; assay: NCI-60 SRB assay, T-47D (Breast Cancer); details: 10 µM, 48 h; for G%: growth vs untreated control
Method: as §1, §2

[19] = system: HL-60(TB); assay: NCI-60 SRB assay, HL-60(TB) (Leukemia); details: 10 µM, 48 h; for G%: growth vs untreated control
Method: as §1, §2

[20] = system: K-562; assay: NCI-60 SRB assay, K-562 (Leukemia); details: 10 µM, 48 h; for G%: growth vs untreated control
Method: as §1, §2

Row | SMILES | Mean G% - G% [4] | G% [4] | Mean G% - G% [5] | G% [5] | Mean G% - G% [6] | G% [6] | Mean G% - G% [7] | G% [7] | Mean G% - G% [8] | G% [8] | Mean G% - G% [9] | G% [9] | Mean G% - G% [10] | G% [10] | Mean G% - G% [11] | G% [11] | Mean G% - G% [12] | G% [12] | Mean G% - G% [13] | G% [13] | also measured
1 | C[C@@H]1NC(c2ccc(N=[N+]=[N-])cc2)=Nc2nc3ccccn3c2C1=O [Compound 5, (4S)-4-methyl-2-(4-azidophenyl)-3,4-dihydro-5H-pyrido[1’,2’:1,2]imidazo[4,5-d][1,3]diazepin-5-one] | -3,81% | 89,07% | -8,41% | 93,67% | 5,95% | 79,31% | 27,28% | 57,98% | 13,36% | 71,90% | -2,57% | 87,83% | -13,85% | 99,11% | 4,81% | 80,45% | -9,12% | 94,38% | -15,59% | 100,85% | proportion of cells in G2/M phase ([1]; 16 h): 33.1%; proportion of cells in G1 phase ([1]; 16 h): decrease of cells in G1 phase; proportion of cells in G2/M phase ([1]; 48 h): 18.4%; cells in subG1 phase (apoptosis) ([1]; time not explicit (sentence follows 48 h), control 1.2%): 2.4%; morphological changes / actin network [2]: disorganisation of the actin cytoskeleton; Mean G% - G% [3]: -12,13%; G% [3]: 97,39%; Mean G% - G% [14]: 11,92%; G% [14]: 73,34%; Mean G% - G% [15]: 10,49%; G% [15]: 74,77%; Mean G% - G% [16]: -10,95%; G% [16]: 96,21%; Mean G% - G% [17]: -10,11%; G% [17]: 95,37%; Mean G% - G% [18]: 8,29%; G% [18]: 76,97%
2 | C[C@@H]1NC(c2csc3ccccc23)=Nc2nc3ccccn3c2C1=O [Compound 8, (4S)-4-methyl-2-benzothiophen-3-yl-3,4-dihydro-5H-pyrido[1’,2’:1,2]imidazo[4,5-d][1,3]diazepin-5-one] | 8,10% | 66,77% | -10,32% | 85,19% | -25,43% | 100,30% | 4,90% | 69,97% | -0,70% | 75,57% | -1,87% | 76,74% | -12,47% | 87,34% | -18,67% | 93,54% | -20,08% | 94,95% | -23,68% | 98,55% | proportion of cells in G2/M phase ([1]; 16 h): 20.8%; proportion of cells in G1 phase ([1]; 16 h): 53.0%; proportion of cells in G2/M phase ([1]; 48 h): 15.4%; morphological changes / actin network [2]: disorganisation of the actin cytoskeleton; Mean G% - G% [19]: 6,00%; G% [19]: 68,87%; Mean G% - G% [20]: -6,34%; G% [20]: 81,21%; Mean G% - G% [14]: -2,84%; G% [14]: 77,71%; Mean G% - G% [15]: 39,76%; G% [15]: 35,11%; Mean G% - G% [16]: 15,40%; G% [16]: 59,47%; Mean G% - G% [17]: -11,85%; G% [17]: 86,72%; Mean G% - G% [18]: 28,96%; G% [18]: 45,91%
3 | [N-]=[N+]=NCCCC[C@@H]1NC(c2ccc(Br)cc2)=Nc2nc3ccccn3c2C1=O [Compound 16, (4S)-4-(4-azidobutyl)-2-(4-bromophenyl)-3,4-dihydro-5H-pyrido[1’,2’:1,2]imidazo[4,5-d][1,3]diazepin-5-one] | 16,61% | 75,16% | 0,98% | 90,79% | -15,42% | 107,19% | 10,11% | 81,66% | -0,19% | 91,96% | -6,24% | 98,01% | 0,74% | 91,03% | 5,56% | 86,21% | -16,61% | 108,38% | 5,48% | 86,29% | Mean G% - G% [3]: -6,17%; G% [3]: 97,94%; Mean G% - G% [19]: 18,52%; G% [19]: 73,25%; Mean G% - G% [14]: -9,49%; G% [14]: 101,26%; Mean G% - G% [15]: 7,26%; G% [15]: 84,51%; Mean G% - G% [16]: -1,51%; G% [16]: 93,28%; Mean G% - G% [17]: -13,82%; G% [17]: 105,59%; Mean G% - G% [18]: 10,17%; G% [18]: 81,60%
4 | C[C@@H]1NC(c2ccc(Br)cc2)=Nc2nc3ccccn3c2C1=O [JMV5038] | -0,42% | 54,66% | 21,74% | 32,50% | 27,91% | 26,33% | 24,69% | 29,55% | 16,28% | 37,96% | -20,40% | 74,64% | 0,29% | 53,95% | 1,80% | 52,44% | 6,87% | 47,37% | -15,71% | 69,95% | morphological changes / actin network [2]: disorganisation of the actin cytoskeleton; Mean G% - G% [3]: -25,20%; G% [3]: 79,44%; Mean G% - G% [20]: 29,92%; G% [20]: 24,32%; Mean G% - G% [14]: 14,87%; G% [14]: 39,37%; Mean G% - G% [15]: 10,09%; G% [15]: 44,15%; Mean G% - G% [16]: -17,10%; G% [16]: 71,34%; Mean G% - G% [17]: 4,92%; G% [17]: 49,32%; Mean G% - G% [18]: -12,99%; G% [18]: 67,23%
